Measured values published in ChEMBL document CHEMBL3507680, “University of Dundee, Gates Library screen for HepG2 cell viability”.

assay: Human HepG2 cell viability assay in 384 well format; assay type: toxicity, cell-based; parameters: dose 125 nL, time 70.5 hour; concentration not given beside the values; details: HepG2 cells, read-out: Inhibition

Row | Structure (SMILES) | cytotoxicity at 70.5 h [%]
1 | Cc1ccnn1CCCNC(=O)C1CCN(S(C)(=O)=O)CC1 | -1.25
2 | Cc1cnc(N2CCOC3(COCCN(c4nccs4)C3)C2)nc1 (stereo not drawn) | -4.6
3 | Oc1cc(-c2ccccn2)nc(C2CCN(Cc3ccncc3)CC2)n1 | 16.5
4 | CCc1nnc(CN(C)C2CCCN(Cc3noc(C4CC4)n3)C2)o1 (stereo not drawn) | 12.1
5 | c1cnc(N2CCOC3(COCCN(Cc4cc[nH]n4)C3)C2)nc1 (stereo not drawn) | -8.27
6 | FC(F)(F)CCc1ccnc(NCc2csc(N3CCOCC3)n2)n1 | -10.4
7 | O=C(NCc1ccccc1F)C1=NOC2(CCNC2)C1 (stereo not drawn) | -10.8
8 | c1cc(CNCC2Cn3nncc3CO2)ccn1 (stereo not drawn) | -5.93
9 | CC(C)N(Cc1ccc(C(=O)O)o1)C(C)C | -7.28
10 | CC(NCc1cnc(C2CCC2)s1)c1ccc(-n2cncn2)cc1 (stereo not drawn) | -5.3
11 | CCC1=N[C@@]2(CC[C@@H]3CN(CC4CC4)C[C@@H]32)C(=O)N1 | 7.37
12 | CCS(=O)(=O)N1CCc2c(cccc2NCc2ncc[nH]2)C1 | -10
13 | CCN1C[C@@H]2[C@@H](OC)CCN(S(=O)(=O)c3ccccc3F)[C@@H]2C1 | -9.34
14 | CO[C@H]1[C@@H]2CC[C@H]1CN(c1nc(C)nc3sccc13)C2 | 6.45
15 | Cc1ccc(-c2ccnc(N[C@H]3COC[C@@H]3N3CCCCC3)n2)c(C)n1 | -11.2
16 | CCCC1c2ccccc2CCN1CCS(C)(=O)=O (stereo not drawn) | -3.74
17 | CC(C)[C@H](N)CC(=O)Nc1nc(-c2cnc(N3CCOCC3)nc2)cs1 | -1.39
18 | O=C(NCCC1CCCO1)c1ccccc1N1CCOCC1 (stereo not drawn) | 1.49
19 | CCNC(=O)CN(CC)S(=O)(=O)c1c(Br)cc2[nH]c(=O)oc2c1Cl | -12.3
20 | O=C(O)c1ccnc(-c2ccnc(COc3ccc(Cl)cc3)n2)c1 | -9.69
21 | Cc1csc2c(N3CCNC(C(=O)N4CCCC4)C3)ncnc12 (stereo not drawn) | -7.34
22 | CN(Cc1nc2ccccc2s1)C1CCCN(c2cccnn2)C1 (stereo not drawn) | -11
23 | CCCn1cc(-c2ccnc(NC3CCc4ccccc43)n2)c(C)n1 (stereo not drawn) | 4.9

Row | Structure (SMILES) | cytotoxicity at 70.5 h [%]
24 | CC(C)CN(CC(O)c1ccccc1)C(=O)NC(C)C (stereo not drawn) | -4.36
25 | O=C(C[C@H]1[C@H]2CN(C(=O)c3cccnc3)C[C@@H]12)Nc1cccnc1 | -1.44
26 | CC(C)CCN1CCC2(CC1)NCc1ccccc1NC2=O | -7.94
27 | COc1ccc(C2CCCCCN2S(=O)(=O)N(C)C)cc1 (stereo not drawn) | -7.96
28 | CNC(=O)c1cc2c(nc1NCC1CC1)CCN(S(C)(=O)=O)CC2 | -23.3
29 | CN(Cc1ccccc1)CC(O)Cn1cnc2cc(F)ccc2c1=O (stereo not drawn) | -7.28
30 | CN(C)C(=O)CN1CCCC(c2nccnc2-c2cccc(Cl)c2)C1 (stereo not drawn) | 1.03
31 | CC(=O)N(C)C1CCN(C(=O)NCCc2cc(F)ccc2F)CC1 | -13.7
32 | Cc1cc(C(=O)Nc2cnn(CC(F)(F)F)c2)nc(N(C)C)n1 | -1.64
33 | CN(C)CC1(O)CCCN(c2nc(-c3ccccc3)no2)CC1 (stereo not drawn) | -7.51
34 | CC(=O)N[C@@H]1CN(Cc2nccn2C)C[C@H]1c1ccc(C)cc1 | 22.6
35 | O=C(NCc1cn2c(n1)CN(Cc1cccnc1)CC2)C1CCC1 | 7.24
36 | Cn1cccc1C(CNC(=O)COc1ccc(Cl)cc1Cl)N1CCCC1 (stereo not drawn) | -16.7
37 | C[C@@H]1CN(Cc2ccc(-c3ccncc3)cc2F)CC(C(N)=O)O1 (stereo partly drawn) | -0.906
38 | C=C(C)CN1CCOC(Cn2cncn2)C1 (stereo not drawn) | 32
39 | CC(C)NC(=O)c1sc2ccccc2c1[C@H]1CC[C@H](CN)CC1 | 38.7
40 | COc1ccc(-c2nnsc2C(=O)N2CCOCC2)cc1 | -11.2
41 | CN1CCN(C(=O)c2ccccc2)CC(Cc2cc(N(C)C)ncn2)C1 (stereo not drawn) | -3.72
42 | Cc1cccc(NC(=O)N(CCC(F)(F)F)C[C@H](O)CO)c1 | -5.55
43 | Cc1cc(C)c(C(=O)Nc2cccc(CN3CCC(CO)CC3)c2)o1 | 4.26
44 | Cc1noc(C)c1-c1cccc(CC2CCN(C(=O)c3cc[nH]n3)C2)n1 (stereo not drawn) | -18
45 | O=C(c1nc(=O)[nH]c2ccccc12)N1CCCC(CC2CC2)(C(=O)O)C1 (stereo not drawn) | -8.79
46 | Cn1c(CN2CCC(N3CCNC3=O)CC2)cc(=O)n(C)c1=O | -7.49

Row | Structure (SMILES) | cytotoxicity at 70.5 h [%]
47 | COc1ccc(/C=C/CN2CCC3(CC2)CN(C)C(=O)O3)cc1 | -6.12
48 | CSc1cccc(CN(C)C(=O)Cn2ncc(N3CCCC3)cc2=O)c1 | -3.66
49 | Cc1ncsc1CN1C[C@@H]2CN(Cc3cccnc3)CCO[C@@H]2C1 | -5.27
50 | CSCC(=O)N1CCc2[nH]nc(-c3ccc4c(c3)OCO4)c2C1 | 0.0699
51 | CN(Cc1ccc(F)cc1F)CC(C)(CO)CO | -5.77
52 | CC(C)CCc1n[nH]c(C(=O)O)c1Cl | 16.9
53 | O=C(CC1Cn2ncnc2NC1=O)Nc1ccc(F)c(F)c1 (stereo not drawn) | -7.69
54 | CCc1ccc2c(C3CN(S(C)(=O)=O)C3)ncn2c1 | 9.29
55 | CN(CC(=O)N1CCCC1Cn1cccn1)Cc1ccccc1 (stereo not drawn) | -17.4
56 | COc1cccc(-c2cc(C(=O)N3N=C(C)CC3(O)C(F)(F)F)[nH]n2)c1 (stereo not drawn) | -16.8
57 | O=C(Cc1ccccc1C(F)(F)F)N1CCC2(CC1)[C@H](O)C[C@@H]2O | -6.88
58 | COCc1cnc2n1CCN(C(=O)c1ccc3ccccc3n1)C2C (stereo not drawn) | -8.35
59 | Cc1csc(CN2CCC[C@]3(C[C@@H](Oc4ccccn4)CO3)C2)n1 | 1.82
60 | O=C(c1ccccn1)N1CCC(c2nccn2Cc2ccncc2)CC1 | -14.4
61 | O=C1CC2(CCCC2)CN1CCOc1ccc(F)cc1 | -9.74
62 | Cn1c(C2CCCN2C(=O)c2cn(CCN)nn2)nc2ccccc21 (stereo not drawn) | -15.7
63 | COCCn1c(-c2cccc(OC)c2)cnc1NC(=O)NCCC(C)C | -12.5
64 | CCn1c(=O)c2cc(S(N)(=O)=O)ccc2n(CC)c1=O | -2.07
65 | CC(C)(N)c1cn([C@@H]2c3ccccc3C3(CCNCC3)[C@H]2O)nn1 | -4.25
66 | CCN(Cc1ccc2c(c1)OCCO2)C(=O)NCc1nncn1CC | -13.5
67 | Cc1cccc(NC(=O)Cn2nc3ccccn3c2=O)c1C | -10.3
68 | CN1CC(C(=O)NCCc2ccc(Br)cc2F)CC1=O (stereo not drawn) | -19.2
69 | Cc1ccc(Cl)c(CN2CCC3(CC2)C(C(=O)O)CC(=O)N3C)c1F (stereo not drawn) | -5.82

Row | Structure (SMILES) | cytotoxicity at 70.5 h [%]
70 | COc1cc(C)nc(N2CCN(C(=O)COCC3CC3)CC2)n1 | -3.61
71 | Cc1ccc(CN(Cc2ccncc2)C2CCN(C)CC2)s1 | 15.5
72 | CN(C)C(=O)N1Cc2ncn(C)c2C(COCC2CCOCC2)C1 (stereo not drawn) | -11.9
73 | O=C(c1cccc(Cl)c1)N1CCCn2c(CN3CCCCC3)nnc2C1 | -1.86
74 | O=C(COc1ccc2c(c1)CCC2)NCc1ccco1 | 23.9
75 | O=C(C1CCC1)N1CCC2(CCNCC2)C1 | 13.3
76 | CN(Cc1cccc(OC(F)F)c1)Cc1nc2c(cnn2C)c(=O)[nH]1 | 2.1
77 | COCCN1CCc2ncc(CNc3cc(N(C)C)ncn3)n2CC1 | -8.47
78 | CCc1nc2ccccc2n1C(CC)C(=O)N(C)Cc1noc(C)n1 (stereo not drawn) | -19.8
79 | Cc1ccc(OCCSC2=NCCN2)cc1 | -4.93
80 | CCCn1nccc1NC(=O)c1ccc(Cl)c(N2CCNC2=O)c1 | -2.55
81 | COc1ccc(C2CCCN2Cc2ccc(S(=O)(=O)N(C)C)o2)cc1 (stereo not drawn) | -1.88
82 | N#CC1(C(=O)N2CCCN(c3nccs3)CC2)CCCC1 | -11
83 | Cc1noc([C@@H]2C[C@H]3OCC[C@H]3N(S(C)(=O)=O)C2)n1 | -8.57
84 | CCC(C)N(C)S(=O)(=O)c1ccc(CCNC(C)=O)s1 (stereo not drawn) | -7
85 | O=C(Cc1cccc(F)c1)N1C[C@H]2CN(Cc3ccccn3)C[C@H]2C1 | -6.98
86 | CS(=O)(=O)c1ccc(C(=O)NCCNc2ncccn2)cc1 | -12.6
87 | Cc1cc(CN(C)C(=O)NC(C)c2nncn2C)no1 (stereo not drawn) | -5.64
88 | C=C(C)CN1C(=O)CC(Cc2ccc(F)cc2)C1=O (stereo not drawn) | -3.87
89 | CC(O)c1cn(CC2CCN(C(=O)c3cscn3)CC2)nn1 (stereo not drawn) | -3.74
90 | CCCS(=O)(=O)N1CCC2(CC1)CC(=O)N(Cc1cc(F)cc(F)c1)C2 | -7.19
91 | CC(c1nccs1)N(C)Cc1ccc(CCC(C)(C)O)cc1 (stereo not drawn) | 0.285
92 | O=C(Nc1ccccc1)C1CN(CC2CC2)CC12CCOCC2 (stereo not drawn) | -17.6

Row | Structure (SMILES) | cytotoxicity at 70.5 h [%]
93 | O=C1NCC2(CCCN(c3ncnc4c3CCC4)CC2)O1 (stereo not drawn) | 2.31
94 | Cc1ccccc1N1CCN(c2ccncn2)C(C)C1 (stereo not drawn) | -2.86
95 | CCCSc1ncc(-c2nccn2CCO)cn1 | -12.8
96 | CSc1ccc(OC(C)C(=O)Nc2cc[nH]n2)cc1 (stereo not drawn) | -2.7
97 | CC1CCCN(CC(=O)N2CCC(c3ncc4c(n3)CCNC4)CC2)C1 (stereo not drawn) | 1.79
98 | CCn1ccc(NC(=O)CCc2c(C)nn(C)c2C)n1 | 18.2
99 | COCC1c2c(cnn2C)CCN1Cc1ccc(C)cc1 (stereo not drawn) | 42.3
100 | Cc1cnc(N2CCc3c(CNc4ccnc(C)n4)cncc3C2)nc1 | 18.6
101 | COc1ccc(Cc2c(O)nc(SC)n(-c3ccccc3)c2=O)cc1 | 12.6
102 | NC(=O)CN1CCCC(Cc2ccc(N3CCOCC3)nn2)C1 (stereo not drawn) | -0.993
103 | CC(C)NS(=O)(=O)c1cc(C(=O)O)cc(-c2ccccc2CO)c1 | -3.6
104 | CN1CCCc2cc(CNC(=O)c3ccc(-n4cnnc4)cc3)ccc21 | -2.87
105 | COc1cc(OC)c(C2SCC(=O)Nc3n[nH]cc32)cc1OC (stereo not drawn) | -1.01
106 | Cc1ccc(CN(C)C(=O)C(C)n2ccnc2C(C)C)o1 (stereo not drawn) | -18.9
107 | CCc1nnc(CN(CC)C(=O)C2CC(=O)N(Cc3cccnc3)C2)o1 (stereo not drawn) | -11.4
108 | CN(C)c1ncnc2c1CCN(CC1CCCC1)CC2 | -13.2
109 | O=C1CC2(CCN(Cc3ccccn3)C2)CN1c1cccnc1 (stereo not drawn) | 1.41
110 | Cc1nn(C)c(C)c1C1CCCN1C(=O)c1cnc2n[nH]c(C)c2c1 (stereo not drawn) | -7.81
111 | Cc1noc(C)c1CN(C)C(=O)c1nc(N2CCCC2)ncc1Cl | -11.7
112 | Cc1nc(CC(=O)N2CCC3(CC2)CC(=O)N(CC2CCCO2)C3)cs1 (stereo not drawn) | -3.04
113 | CCCc1cc(C(=O)NC(COC)c2ccnn2C)no1 (stereo not drawn) | 14.9
